Results reported in article PMC9920298, “Coronavirus Inhibitors Targeting nsp16” (Molecules, 2023).

Columns and labels:
GST-NSP16 MERS-CoV = GST-NSP16 MERS-CoV (Middle East respiratory syndrome-related coronavirus, UniProt K9N7C7); experiment: biochemical; type: binding
GST-NSP16 SARS-CoV-2 = GST-NSP16 SARS-CoV-2 (Severe acute respiratory syndrome coronavirus 2, UniProt P0DTD1); experiment: biochemical; type: binding
GST-NSP16 SARS-CoV-1 = GST-NSP16 SARS-CoV-1 (Severe acute respiratory syndrome coronavirus, UniProt P0C6X7); experiment: biochemical; type: binding
[1] = Cell viability (resazurin) assay in normal lung fibroblasts; details: human, MRC-5 lung fibroblasts

Sequence of GST-NSP16 MERS-CoV (K9N7C7 6776-7078 limits assumed): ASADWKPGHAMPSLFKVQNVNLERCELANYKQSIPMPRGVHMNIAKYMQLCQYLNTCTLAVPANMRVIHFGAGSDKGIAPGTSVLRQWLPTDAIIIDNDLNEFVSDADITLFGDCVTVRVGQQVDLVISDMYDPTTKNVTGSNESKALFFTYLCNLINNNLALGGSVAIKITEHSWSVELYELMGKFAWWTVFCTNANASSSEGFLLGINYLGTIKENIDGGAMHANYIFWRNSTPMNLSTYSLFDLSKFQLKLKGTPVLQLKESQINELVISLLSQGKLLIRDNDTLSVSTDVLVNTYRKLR

Row | Structure (SMILES) | Binding to MERS-CoV nsp16 by MST (in words) (GST-NSP16 MERS-CoV) | Binding to SARS-CoV-2 nsp16 by MST (in words) (GST-NSP16 SARS-CoV-2) | Kd (GST-NSP16 SARS-CoV-2) [µM] | Binding to SARS-CoV-1 nsp16 by MST (in words) (GST-NSP16 SARS-CoV-1) | Kd (GST-NSP16 MERS-CoV) [µM] | Kd (GST-NSP16 SARS-CoV-1) [µM] | CC50 at 72 h [1] [µM]
1 | Cc1ccc2ccccc2c1COc1ccc2c(-c3cc4ccccc4oc3=O)cc(=O)oc2c1 [ZINC2121012, 7′-[(2-methylnaphthalen-1-yl)methoxy]-2H,2′H-3,4′-bichromene-2,2′-dione] | bound to neither SARS-CoV-1 nor MERS-CoV | strong binding | 23.1 ± 1.05 | bound to neither SARS-CoV-1 nor MERS-CoV | – | – | –
2 | O=c1cc(-c2cc3ccccc3oc2=O)c2ccc(OCc3cccc4ccccc34)cc2o1 [ZINC2129028, 7′-(naphthalen-1-ylmethoxy)-2H,2′H-3,4′-bichromene-2,2′-dione] | – | strong binding | 60 ± 2.53 | – | 48.1 ± 4.12 | 56.4 ± 1.85 | 18.5 ± 0.66
3 | COc1cccc2c(-c3cc4ccc(OCc5ccc6ccccc6c5)cc4oc3=O)cc(=O)oc12 [ZINC12880820, 8′-methoxy-7-[(naphthalen-2-yl)methoxy]-2H,2′H-[3,4′-bichromene]-2,2′-dione] | – | strong binding | 29.1 ± 2.86 | – | 36.4 ± 1.12 | > 100 | –
